Test results taken from PMC7435868, “Structure-Based Virtual Screening, Synthesis and Biological Evaluation of Potential FAK-FAT Domain Inhibitors for Treatment of Metastatic Cancer” (Molecules, 2020).
Structures can show the parent of a compound that is named as a salt.

How the values were obtained:
T47D = assay: Cell viability assay (CellTiter Glo), T47D; type: cell-based, human; conditions: Homo sapiens, T47D, 72 h, 72 h incubation, mean of independent triplicate experiments, read-out: In vitro anti-proliferative activity IC50, T47D ER+ PR+/- HER-
Description: (§1) The antiproliferative activity of compound I as well as its newly synthesised analogues (5a–i) was evaluated in vitro against the three human breast cancer cell lines MDA-MB-231 (TNBC), T47D (ER^+, HER^−), and BT474 (ER^+, HER^+) as well as a human pancreatic cancer cell line MIAPaCa2. The seeding of the corresponding cell lines started one day before incubation, which lasted for 72 h with the different concentrations of the tested compounds. CellTiter Glo reagent (25 μL) was added to the cell plate. The luminescence was analysed after 10 min using a PerkinElmer Envision instrument. The test compounds were used at ten different triplicate concentrations in half log increments up to 100 μM.

BT474 = assay: Cell viability assay (CellTiter Glo), BT474; type: cell-based, human; conditions: Homo sapiens, BT-474, 72 h, 72 h incubation, mean of independent triplicate experiments, read-out: In vitro anti-proliferative activity IC50, BT474 ER+ PR+/- HER+
Description: as §1

MIAPaCa2 = assay: Cell viability assay (CellTiter Glo), MIAPaCa2; type: cell-based; conditions: Homo sapiens, MIA PaCa-2, 72 h incubation, mean of independent triplicate experiments, read-out: In vitro anti-proliferative activity IC50, MIAPaCa2
Description: as §1

MDA-MB-231 = assay: Cell viability assay (CellTiter Glo), MDA-MB-231; type: cell-based; conditions: Homo sapiens, 72 h incubation, mean of independent triplicate experiments, read-out: In vitro anti-proliferative activity IC50, MDA-MB-231 ER- PR- HER-
Description: as §1

[1] = Microsomal metabolic stability; conditions: for Compound Remaining (% of 0 min), 0 min / Compound Remaining (% of 0 min), 5 min / Compound Remaining (% of 0 min), 15 min / Compound Remaining (% of 0 min), 30 min / Compound Remaining (% of 0 min), 45 min / Compound Remaining (% of 0 min), Control: human liver microsomes; for Compound Remaining (% of 0 min), Control: minus NADPH control; for Compound Remaining (% of 0 min), 45 min / Compound Remaining (% of 0 min), Control: 45 min; for half-life at 3 μM / microsomal CLint at 3 μM: human, pooled liver microsomes, pH 7.4
Description: Half-life (t1/2) values were measured at five time points.
Intrinsic clearance values (CLint) with standard error and t1⁄2 values were measured.
The final incubation volume was 50 μL. A minus cofactor control incubation was included for each compound tested where 0.1 M phosphate buffer pH 7.4 was added instead of NADPH (minus NADPH). Two control compounds were included with each species. All incubations were performed singularly for each test compound.
The reactions were stopped by transferring 20 μL of incubate to 60 μL methanol at the appropriate time points. The termination plates were centrifuged at 2500 rpm for 20 min at 4 °C to precipitate the protein.
Following protein precipitation, the sample supernatants were combined in cassettes of up to 4 compounds, the internal standard was added, and samples were analysed using Cyprotex generic LC-MS/MS conditions.
From a plot of ln peak area ratio (compound peak area/internal standard peak area) against time, the gradient of the line was determined.

[2] = Turbidimetric aqueous solubility; type: physicochemical; conditions: 37 °C, 2 h; for Estimated Precipitation Range, Calculated Mid-Range / Estimated Precipitation Range, Lower Bound / Estimated Precipitation Range, Upper Bound: buffered aqueous solution (PBS pH 7.4, 1% DMSO); for Aqueous solubility (in words): turbidimetric
Description: Both the estimated precipitation range (lower and upper bound) and a mid-range value were measured. Nicardipine and pyrene were used as control compounds.
The test compound was diluted in buffer to give a range of concentrations (1, 3, 10, 30, and 100 μM; final DMSO concentration 1%) and incubated at 37 °C for 2 hr.
The test compound (10 mM in DMSO) was serially diluted to give solutions of 0.1, 0.3, 1, and 3 mM in DMSO. Each test compound concentration was then further diluted 1 to 100 in buffer (typically 0.01 M phosphate buffered saline pH 7.4) so that the final DMSO concentration was 1%, and the final test compound concentrations were 1, 3, 10, 30, and 100 μM. The experiment was performed at 37 °C and each concentration was incubated in 7 replicate wells. The plates were incubated for 2 h at 37 °C before the absorbance was measured at 620 nm. Nicardipine and pyrene were included as control compounds. The solubility of nicardipine is pH dependent whereas the solubility of pyrene is pH independent.
An estimated precipitation range (lower and upper bound) and a calculated mid-range value were returned, along with any relevant comments, in the form of an Excel spreadsheet.

hERG potassium channel = hERG potassium channel (Homo sapiens, UniProt Q12809); assay: hERG channel inhibition (IonWorks automated patch clamp, CHO-hERG cells)
hERG potassium channel, sequence (Q12809 whole entry): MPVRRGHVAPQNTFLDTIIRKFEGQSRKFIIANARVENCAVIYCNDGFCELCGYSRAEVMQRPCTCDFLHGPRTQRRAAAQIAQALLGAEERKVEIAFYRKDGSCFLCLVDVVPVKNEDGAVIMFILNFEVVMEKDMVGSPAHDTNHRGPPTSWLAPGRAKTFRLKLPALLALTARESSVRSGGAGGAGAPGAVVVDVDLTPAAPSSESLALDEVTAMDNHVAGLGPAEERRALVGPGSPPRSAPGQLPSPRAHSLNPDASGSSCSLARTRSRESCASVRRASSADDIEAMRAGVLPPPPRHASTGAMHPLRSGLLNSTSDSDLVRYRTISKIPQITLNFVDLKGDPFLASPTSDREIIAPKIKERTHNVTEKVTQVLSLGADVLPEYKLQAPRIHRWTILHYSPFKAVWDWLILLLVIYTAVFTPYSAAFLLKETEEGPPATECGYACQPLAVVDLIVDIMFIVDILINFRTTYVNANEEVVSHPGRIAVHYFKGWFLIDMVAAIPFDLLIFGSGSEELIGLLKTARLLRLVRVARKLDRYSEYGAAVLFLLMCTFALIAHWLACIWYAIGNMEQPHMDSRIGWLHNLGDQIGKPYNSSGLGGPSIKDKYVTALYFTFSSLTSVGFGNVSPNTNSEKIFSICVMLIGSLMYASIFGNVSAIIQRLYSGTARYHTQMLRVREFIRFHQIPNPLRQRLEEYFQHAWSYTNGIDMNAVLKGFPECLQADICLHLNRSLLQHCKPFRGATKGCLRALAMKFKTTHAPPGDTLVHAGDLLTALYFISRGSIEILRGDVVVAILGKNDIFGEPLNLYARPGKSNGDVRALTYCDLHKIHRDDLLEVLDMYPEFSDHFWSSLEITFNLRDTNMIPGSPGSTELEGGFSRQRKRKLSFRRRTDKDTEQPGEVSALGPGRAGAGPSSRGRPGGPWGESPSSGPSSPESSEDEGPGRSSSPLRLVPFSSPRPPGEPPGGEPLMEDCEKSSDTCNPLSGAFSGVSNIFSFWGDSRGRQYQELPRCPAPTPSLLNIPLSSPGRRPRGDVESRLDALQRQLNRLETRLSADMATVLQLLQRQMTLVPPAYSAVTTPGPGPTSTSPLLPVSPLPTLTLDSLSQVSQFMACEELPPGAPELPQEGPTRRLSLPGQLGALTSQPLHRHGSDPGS
Description: Mammalian cells expressing the hERG potassium channel were dispensed into 384-well planar arrays and hERG tail-currents measured by whole-cell voltage-clamping. A range of concentrations of the test compound was then added to the cells and a second recording of the hERG current was made. […] IC50 is delivered, standard error (SE IC50), and n (number of data points used to calculate IC50) for the test compound. The experiments were performed on an Ion Works TM automated patch clamp instrument (Molecular Devices LLC (San Jose, California, United States)), which simultaneously performs electrophysiology measurements for 48 single cells in a specialised 384-well plate (PatchPlateTM(manufacturer, city, state if USA or Canada, country)). All cell suspensions, buffers, and test compound solutions were at room temperature during the experiment.
The cells used were Chinese hamster ovary (CHO) cells stably transfected with hERG (cell-line obtained from Cytomyx, UK). A single-cell suspension was prepared in extracellular solution (Dulbecco’s phosphate buffered saline with calcium and magnesium pH 7.2) and aliquots added automatically to each well of a Patch Plate TM. The cells were then positioned over a small hole at the bottom of each well by applying a vacuum beneath the plate to form an electrical seal. The vacuum was applied through a single compartment common to all wells which was filled with intracellular solution (buffered to pH 7.2 with HEPES). The resistance of each seal was measured via a common ground-electrode in the intracellular compartment and individual electrodes placed into each of the upper wells.
Electrical access to the cell was then achieved by circulating a perforating agent, amphotericin B, underneath the PatchPlateTM. The pre-compound hERG current was then measured. An electrode was positioned in the extracellular compartment and a holding potential of −80 mV applied for 15 s. The hERG channels were then activated by applying a depolarising step to +40 mV for 5 s and then clamped at −50 mV for 4 s to elicit the hERG tail current, before returning to −80 mV for 0.3 s.
The Ion Works TM instrument automatically adds test compound dilutions to the upper wells of the PatchPlateTM. The test compound was left in contact with the cells for 300 s before recording currents using the same voltage-step protocol as in the pre-compound scan.
Each concentration was tested in 4 replicate wells on the PatchPlateTM (maximum of 24 data points). Filters were applied to ensure only acceptable cells were used to assess hERG inhibition.
For each replicate, the hERG response was calculated using the following equation:% hERG response = [Post-compound current (nA)/Pre-compound current (nA)] × 100(5)

SMILES | IC50 (T47D) | IC50 (BT474) | IC50 (MIAPaCa2) | IC50 (MDA-MB-231) | Compound Remaining (% of 0 min), 0 min [1] | Compound Remaining (% of 0 min), 5 min [1] | Compound Remaining (% of 0 min), 15 min [1] | Compound Remaining (% of 0 min), 30 min [1] | Compound Remaining (% of 0 min), 45 min [1] | Compound Remaining (% of 0 min), Control [1] | half-life at 3 μM [1] | microsomal CLint at 3 μM [1] | Estimated Precipitation Range, Calculated Mid-Range [2] | Estimated Precipitation Range, Lower Bound [2] | Estimated Precipitation Range, Upper Bound [2] | Aqueous solubility (in words) [2] | IC50 (hERG potassium channel)
CC(C)(C)c1ccc(C(CN)c2ccccc2F)cc1 (centres unmarked) [5d, 2-(4-tert-butylphenyl)-2-(2-fluorophenyl)ethan-1-aminium chloride] | 14.7 µM | 14.8 µM | 15.8 µM | 14.8 µM |  |  |  |  |  |  |  |  |  |  |  |  | 
CC(C)(C)c1ccc(C(CN)c2ccc(F)cc2)cc1.Cl (centres unmarked) [5c, 2-(4-tert-butylphenyl)-2-(4-fluorophenyl)ethan-1-aminium chloride] | 13.4 µM | 8.94 µM | 15.1 µM | 12.8 µM | 100 % of 0 min | 94.7 % of 0 min | 95.0 % of 0 min | 86.1 % of 0 min | 82.5 % of 0 min | 98.0 % of 0 min | 2.8 h | 8.26 µL/min/mg | >100 µM | 100 µM | >100 µM | high aqueous solubility | 
Cl.NCC(c1ccc(Cl)cc1)c1ccc(OC(F)(F)F)cc1 (centres unmarked) [5g, 2-(4-chlorophenyl)-2-(4-trifluoromethoxyphenyl)ethan-1-aminium chloride] | 15.3 µM | 15.5 µM | 45.3 µM | 16.9 µM | 100 % of 0 min | 99.0 % of 0 min | 96.2 % of 0 min | 86.8 % of 0 min | 72.8 % of 0 min | 86.6 % of 0 min | 1.67 h | 13.9 µL/min/mg |  |  |  |  | 
CC(C)(C)c1ccc(C(CN)c2cccc(F)c2)cc1 (centres unmarked) [5e, 2-(4-tert-butylphenyl)-2-(3-fluorophenyl)ethan-1-aminium chloride] | 14.4 µM | 15 µM | 17 µM | 14.1 µM |  |  |  |  |  |  |  |  |  |  |  |  | 
CC(C)(C)c1ccc(C(CN)c2ccc(SC(F)(F)F)cc2)cc1.Cl (centres unmarked) [5b, 2-(4-tert-butylphenyl)-2-(4-(trifluoromethyl)thiophenyl)ethan-1-aminium chloride] | 11.4 µM | 12.5 µM | 15.7 µM | 11.8 µM |  |  |  |  |  |  |  |  | 11.5 µM | 3 µM | 20 µM | relatively reduced solubility comparable to pyrene | 
COc1ccc(C(CN)c2ccc(OC)cc2)cc1 [5i, 2,2-Bis(4-methoxyphenyl)ethan-1-aminium chloride] | 43.9 µM | 44.5 µM | 49 µM | 46.2 µM |  |  |  |  |  |  |  |  |  |  |  |  | 6.01 µM
COC(=O)C1=C(C)NC(C)=C(C(=O)OCCN(C)Cc2ccccc2)C1c1cccc([N+](=O)[O-])c1 (centres unmarked) [nicardipine, reference compound] |  |  |  |  |  |  |  |  |  |  |  |  |  |  | 30 µM |  | 
CC(C)(C)c1ccc(C(CN)c2ccc(OC(F)(F)F)cc2)cc1 (centres unmarked) [5a, 2-(4-tert-butylphenyl)-2-(4-trifluoromethoxyphenyl)ethan-1-aminium hydrochloride] | 4.94 µM | 5 µM | 5.51 µM | 5.63 µM | 100 % of 0 min | 95.8 % of 0 min | 92.3 % of 0 min | 86.0 % of 0 min | 81.4 % of 0 min | 91.0 % of 0 min | 2.6 h | 8.91 µL/min/mg | 65 µM | 30 µM | 100 µM | moderate solubility | 3.59 µM
Cl.NCC(c1ccc(OC(F)(F)F)cc1)c1ccc(OC(F)(F)F)cc1 [5h, 2,2-Bis(4-trifluoromethoxyphenyl)ethan-1-aminium chloride] | 13.2 µM | 13.2 µM | 39.9 µM | 12.8 µM | 100 % of 0 min | 102 % of 0 min | 108 % of 0 min | 100 % of 0 min | 95.8 % of 0 min | 97.8 % of 0 min | 9.82 h | 2.35 µL/min/mg | 65 µM | 30 µM | 100 µM | moderate solubility | 
c1cc2ccc3cccc4ccc(c1)c2c34 [pyrene, reference compound] |  |  |  |  |  |  |  |  |  |  |  |  | 6.5 µM | 3 µM | 10 µM |  | 
